System: EGFR mutations spanning exons 18-21
Assay: Ba/F3 panel of 76 cell lines expressing EGFR mutations, selectivity over WT EGFR by structure-function group
Assay type: cell-based
Conditions: Ex20ins mutations, FIG. 5A
Excerpt: To determine the effect of EGFR mutations on TKI sensitivity, a panel of 76 cell lines expressing EGFR mutations spanning exons 18-21 was generated and screened against 18 known EGFR inhibitors representing 1st (non-covalent), 2nd (covalent), and 3rd (covalent, T790M targeting) generation TKIs, and compounds under investigation for Ex20ins. […] For the various mutations, structure-function based groups were more predictive of drug sensitivity than exon based groups as determined by spearmen correlations (p<0.0001, FIG. 1F, FIG. 2). […]
After 48-72 hours of transduction, 2 μg/ml puromycin (Invitrogen) was added to Ba/F3 cell lines in complete RPMI. […] Plates were incubated for a minimum of 10 minutes, and bioluminescence was determined using a FLUOstar OPTIMA plate reader (BMG LABTECH). […] Statistical differences between groups were determined by ANOVA as described in the figure legends. […]

CN(C)C/C=C/C(=O)Nc1cc2c(Nc3ccc(Cl)c(Br)c3)ncnc2cn1 [Tarlox-TKI]
sensitivity in vitro: sensitive

Reference: US20240384350A1, “METHODS OF TREATING CANCER WITH KINASE INHIBITORS” (BOARD OF REGENTS, THE UNIVERSITY OF TEXAS SYSTEM, priority 2021, published 2024)
